Measured values from patent US20210023030A1 (priority 2018, published 2021).
pEC50: −log10 of the molar value.

Experiments:
[1] = molecular target: hydroxy-carboxylic acid receptor 2 (HCA2, GPR109A) (Mus musculus, UniProt Q9EP66); conditions: in vivo; cited from earlier work
histone acetylation = conditions: cited from earlier work
NLRP3 inflammasome = NLRP3 inflammasome (Homo sapiens, UniProt Q96P20); conditions: cited from earlier work
[2] = test system: primary human intestinal organoids; assay type: cell-based; conditions: TNFα 40 ng/mL, 10 μM, 18 hours
Description: (§1) To measure the effect of (R)-3-HB on inflammation of primary human intestinal organoids, healthy large intestine samples of a donor were cultured for 8 weeks in vitro prior to experiments. Method as used in Hannan et al., Stem Cell Reports. Vol. 1, 293-306 Oct. 15, 2013.
1) To induce inflammation, organoids were treated with TNFα (40 ng/mL) alone or in combination with butyrate (10 μM), (R)-3-HB (10 μM), or butyrate and (R)-3-HB for 18 hours. Subsequently, cells were lysed and RNA was isolated for cDNA synthesis and measurement of mRNA expression levels of inflammation factors, NF-κB and TNFα, by qPCR.

[3] = test system: primary human intestinal organoids; assay type: cell-based
Description: as §1
2) To induce inflammation, organoids were treated with TNF-α (40 ng/mL) alone or in combination with (R)-3-HB (sodium salts at 10 μM) for 18 hours. Subsequently, cells were lysed and RNA was isolated for cDNA synthesis and mRNA expression levels of a panel of inflammation factors was measured by qPCR.

[4] = test system: primary human intestinal organoids; assay type: cell-based; conditions: TNF-α 60 ng/mL, 24 hours
Description: 3) The effect of (R)-3-HB and the related SCFA butyrate on the inflammatory response exerted by primary human intestinal organoids upon co-incubation with TNF-α as inflammatory stimulus was measured. Primary human intestinal organoids were cultured for 8 weeks prior to experiments as described in Hannan et al. (2013) Stem Cell Reports.
To induce inflammation, organoids were treated with 60 ng/mL TNF-α alone or in combination with different concentrations of the sodium salts of (R)-3-HB or butyrate for 24 hours. Subsequently, cells were lysed and RNA was isolated using the RNeasy mini kit (Qiagen Ltd, Germany) for synthesis of cDNA. mRNA expression levels of IL-23 was measured by qPCR using the SensiMix SYBR low-ROX kit (Bioline, UK).
Values were normalized versus untreated control and graphs show the difference of mRNA levels measured in organoids treated with TNF-α alone (set as 0) and those treated with TNF-α and butyrate or (R)-3-HB.

HCA2 receptor (gpr109A) = HCA2 receptor (gpr109A) (Mus musculus, UniProt Q9EP66); conditions: read-out: EC50 of binding to HCA2 receptor; cited from earlier work
Sequence of HCA2 receptor (gpr109A) (Q9EP66 whole entry): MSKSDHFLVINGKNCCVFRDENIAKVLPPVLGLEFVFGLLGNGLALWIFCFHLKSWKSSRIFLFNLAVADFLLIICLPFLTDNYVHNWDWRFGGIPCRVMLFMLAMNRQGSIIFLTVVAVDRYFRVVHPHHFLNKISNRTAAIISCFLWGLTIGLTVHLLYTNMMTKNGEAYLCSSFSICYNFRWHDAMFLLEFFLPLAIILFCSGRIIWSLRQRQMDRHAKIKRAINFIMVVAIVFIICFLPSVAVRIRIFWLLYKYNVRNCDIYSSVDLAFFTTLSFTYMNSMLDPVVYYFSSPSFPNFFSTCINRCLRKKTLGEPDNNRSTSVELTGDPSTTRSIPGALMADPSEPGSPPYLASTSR

[5] = TNF-α 40 ng/mL, sodium salt 10 μM, 18 hours

Sequence of NLRP3 inflammasome (Q96P20 whole entry): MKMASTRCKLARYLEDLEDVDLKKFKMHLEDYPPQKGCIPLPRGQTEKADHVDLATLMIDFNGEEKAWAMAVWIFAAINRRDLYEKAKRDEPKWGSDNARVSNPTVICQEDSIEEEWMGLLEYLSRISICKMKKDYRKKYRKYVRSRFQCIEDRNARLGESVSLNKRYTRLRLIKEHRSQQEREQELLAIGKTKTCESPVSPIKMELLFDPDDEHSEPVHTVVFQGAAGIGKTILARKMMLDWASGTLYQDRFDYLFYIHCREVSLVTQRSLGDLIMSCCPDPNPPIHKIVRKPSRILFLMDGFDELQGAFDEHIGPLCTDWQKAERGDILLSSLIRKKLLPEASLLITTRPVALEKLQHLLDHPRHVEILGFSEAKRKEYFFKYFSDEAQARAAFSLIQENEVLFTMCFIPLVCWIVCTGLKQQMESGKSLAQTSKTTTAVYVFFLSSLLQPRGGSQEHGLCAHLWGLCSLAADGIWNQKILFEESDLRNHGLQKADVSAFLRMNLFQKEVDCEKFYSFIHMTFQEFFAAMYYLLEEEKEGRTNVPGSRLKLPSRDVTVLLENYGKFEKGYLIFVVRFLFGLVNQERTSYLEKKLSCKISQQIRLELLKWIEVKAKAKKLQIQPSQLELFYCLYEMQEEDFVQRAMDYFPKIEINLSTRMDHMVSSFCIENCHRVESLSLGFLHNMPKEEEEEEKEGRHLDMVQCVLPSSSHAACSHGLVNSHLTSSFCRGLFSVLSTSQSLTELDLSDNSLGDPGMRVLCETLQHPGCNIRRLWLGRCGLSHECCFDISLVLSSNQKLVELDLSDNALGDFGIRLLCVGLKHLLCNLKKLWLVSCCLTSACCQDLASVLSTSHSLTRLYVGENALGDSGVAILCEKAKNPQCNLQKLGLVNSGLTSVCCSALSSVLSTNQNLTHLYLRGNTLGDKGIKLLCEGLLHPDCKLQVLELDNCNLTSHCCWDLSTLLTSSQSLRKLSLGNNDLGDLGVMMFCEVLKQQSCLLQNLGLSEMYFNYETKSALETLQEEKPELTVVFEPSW
Sequence of hydroxy-carboxylic acid receptor 2 (HCA2, GPR109A) (Q9EP66 whole entry): as the sequence (Q9EP66 whole entry) above

| Compound | concentration associated with neuroprotection [1] | concentration that increases histone acetylation in a dose dependent manner (histone acetylation) [mM] | concentration that reduced NLRP3 inflammasome activity (NLRP3 inflammasome) [mM] | NF-κB mRNA expression [2] | TNF-α mRNA expression [2] | IL-1β mRNA expression vs TNF-α alone [3, 5] | IL-6 mRNA expression vs TNF-α alone [3, 5] | IL-10 mRNA expression vs TNF-α alone [3, 5] | IL-23 mRNA expression vs TNF-α alone [3, 5] | NF-κβ mRNA expression vs TNF-α alone [3, 5] | TGF-β1 mRNA expression vs TNF-α alone [3, 5] | TNF-α mRNA expression vs TNF-α alone [3, 5] | effect on pro-inflammatory regulators of IBD compared with butyrate ([3]; data not shown) | effect on protective regulators of intestinal inflammation compared with butyrate ([3]; data not shown) | impact on IL-23 expression compared with butyrate ([4]; 10-100 μM) | concentrations effective at reducing expression of IL-23 ([4]; sodium salt) [µM] | pEC50 (HCA2 receptor (gpr109A)) |
| --- | --- | --- | --- | --- | --- | --- | --- | --- | --- | --- | --- | --- | --- | --- | --- | --- | --- |
| CC(O)CC(=O)O (centres unmarked) [3-HB, 3-hydroxybutyric acid] | 600-1,000 μM | 1 to 2 | 2 to 10 |  |  |  |  |  |  |  |  |  |  |  |  |  |  |
| C[C@@H](O)CC(=O)O [(R)-3-HB, (R)-3-hydroxybutyrate] |  |  |  | decreased | decreased | decreased | decreased | increased | decreased | decreased | increased | decreased | greater reducing effect than butyrate | greater inducing effect | greater reducing impact | 10 to 100 | 3.50 |
